Experimental data as given in ChEMBL document CHEMBL1201862, “PubChem BioAssay data set” (2004).
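Grown in 96-well plates, cells were treated for 48 hours with each compound at five concentrations. Insufficient inhibition: endpoint recorded as highest concentration tested. GI50 is the concentration that inhibits growth by half.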 Activity calls are given as the source filed them. Rule as the data show it: active = GI50 up to about 1.1 µM and inactive = higher.

Columns and labels:
Experiment in all cases: NCI tumour cell line growth inhibition, 48 h
LOX IMVI = system: LOX IMVI
Hs-578T = system: Hs-578T
CAKI-1 = system: CAKI-1
COLO 205 = system: COLO 205
Malme-3M = system: Malme-3M
A498 = system: A498
SF-539 = system: SF-539
UACC-62 = system: UACC-62
ACHN = system: ACHN
786-0 = system: 786-0
SN12C = system: SN12C
MDA-MB-231 = system: MDA-MB-231
SK-OV-3 = system: SK-OV-3
MOLT-4 = system: MOLT-4
A549 = system: A549
SW-620 = system: SW-620
T47D = system: T47D
SK-MEL-28 = system: SK-MEL-28
OVCAR-3 = system: OVCAR-3

SMILES	GI50 (LOX IMVI)	GI50 (Hs-578T)	GI50 (CAKI-1)	GI50 (COLO 205)	GI50 (Malme-3M)	GI50 (A498)	GI50 (SF-539)	GI50 (UACC-62)	GI50 (ACHN)	GI50 (786-0)	GI50 (SN12C)	GI50 (MDA-MB-231)	GI50 (SK-OV-3)	GI50 (MOLT-4)	GI50 (A549)	GI50 (SW-620)	GI50 (T47D)	GI50 (SK-MEL-28)	GI50 (OVCAR-3)
CC1=NCCN=C(C)C1/N=N/c1ccc2[nH]c(C)nc2c1	20.7 µM (inactive)	23.3 µM (inactive)	18.5 µM (inactive)	15.2 µM (inactive)	16 µM (inactive)	0.912 µM (active)	20.5 µM (inactive)	14.2 µM (inactive)	15.6 µM (inactive)	11.7 µM (inactive)	11.7 µM (inactive)	12.7 µM (inactive)	19.1 µM (inactive)	6.38 µM (inactive)	6.19 µM (inactive)	14.9 µM (inactive)	12.7 µM (inactive)	10.6 µM (inactive)	19.5 µM (inactive)
COc1cc2c(cc1O)C(Cc1ccc(OCc3ccccc3)c(OCc3ccccc3)c1)N(C(=O)NCCc1ccccc1)CC2 (stereo not drawn)	> 100 µM (inactive)	> 100 µM (inactive)	> 100 µM (inactive)	> 100 µM (inactive)	> 100 µM (inactive)	78.5 µM (inactive)	> 100 µM (inactive)	> 100 µM (inactive)	> 100 µM (inactive)	> 100 µM (inactive)	> 100 µM (inactive)	> 100 µM (inactive)	> 100 µM (inactive)	> 100 µM (inactive)	20.8 µM (inactive)	> 100 µM (inactive)	16.4 µM (inactive)	–	> 100 µM (inactive)
O=C1c2ccccc2-c2ccc(N(Cc3ccc(Br)cc3)Cc3ccc(Br)cc3)cc21	> 100 µM (inactive)	> 100 µM (inactive)	> 100 µM (inactive)	> 100 µM (inactive)	> 100 µM (inactive)	> 100 µM (inactive)	> 100 µM (inactive)	> 100 µM (inactive)	> 100 µM (inactive)	> 100 µM (inactive)	> 100 µM (inactive)	> 100 µM (inactive)	> 100 µM (inactive)	36.2 µM (inactive)	22.3 µM (inactive)	> 100 µM (inactive)	> 100 µM (inactive)	> 100 µM (inactive)	> 100 µM (inactive)
CNc1ncnc(Sc2nc(N)nc3[nH]cnc23)c1[N+](=O)[O-]	0.189 µM (active)	3.24 µM (inactive)	0.582 µM (active)	2.13 µM (inactive)	1.46 µM (inactive)	17.9 µM (inactive)	5.09 µM (inactive)	0.586 µM (active)	2.84 µM (inactive)	0.583 µM (active)	0.933 µM (active)	1.73 µM (inactive)	0.547 µM (active)	0.409 µM (active)	3.08 µM (inactive)	0.94 µM (active)	0.995 µM (active)	8.2 µM (inactive)	0.75 µM (active)
C(=NCCN1CCOCC1)=NC1CCCCC1	> 100 µM (inactive)	> 100 µM (inactive)	> 100 µM (inactive)	> 100 µM (inactive)	> 100 µM (inactive)	> 100 µM (inactive)	> 100 µM (inactive)	> 100 µM (inactive)	> 100 µM (inactive)	> 100 µM (inactive)	> 100 µM (inactive)	> 100 µM (inactive)	> 100 µM (inactive)	> 100 µM (inactive)	> 100 µM (inactive)	> 100 µM (inactive)	> 100 µM (inactive)	> 100 µM (inactive)	> 100 µM (inactive)
COc1c(O)c(OC)c2oc(-c3ccc(O)cc3)c(OC)c(=O)c2c1O	30.9 µM (inactive)	18.4 µM (inactive)	27.8 µM (inactive)	99.5 µM (inactive)	13.4 µM (inactive)	30.3 µM (inactive)	55.3 µM (inactive)	22.7 µM (inactive)	33.6 µM (inactive)	17.8 µM (inactive)	70.6 µM (inactive)	42.5 µM (inactive)	17 µM (inactive)	57 µM (inactive)	44.2 µM (inactive)	34.5 µM (inactive)	10.2 µM (inactive)	81.8 µM (inactive)	14.8 µM (inactive)
c1csc(-c2nn3c(C45CC6CC(CC(C6)C4)C5)nnc3s2)c1	> 100 µM (inactive)	> 100 µM (inactive)	> 100 µM (inactive)	> 100 µM (inactive)	> 100 µM (inactive)	> 100 µM (inactive)	> 100 µM (inactive)	> 100 µM (inactive)	> 100 µM (inactive)	> 100 µM (inactive)	> 100 µM (inactive)	> 100 µM (inactive)	> 100 µM (inactive)	> 100 µM (inactive)	> 100 µM (inactive)	> 100 µM (inactive)	> 100 µM (inactive)	> 100 µM (inactive)	> 100 µM (inactive)
O=C1CSC(c2ccc([N+](=O)[O-])cc2)N1c1ccc(-n2c(-c3ccccc3)nc3ccccc3c2=O)cc1 (stereo not drawn)	> 100 µM (inactive)	> 100 µM (inactive)	64.6 µM (inactive)	> 100 µM (inactive)	> 100 µM (inactive)	> 100 µM (inactive)	42.9 µM (inactive)	7.98 µM (inactive)	77.8 µM (inactive)	> 100 µM (inactive)	> 100 µM (inactive)	70.3 µM (inactive)	> 100 µM (inactive)	29.5 µM (inactive)	> 100 µM (inactive)	> 100 µM (inactive)	22.5 µM (inactive)	> 100 µM (inactive)	> 100 µM (inactive)
OC(Cc1ccc2ccccc2n1)(C(F)(F)F)C(F)(F)F	> 10 µM (inactive)	> 10 µM (inactive)	> 10 µM (inactive)	> 10 µM (inactive)	> 10 µM (inactive)	> 10 µM (inactive)	> 10 µM (inactive)	> 10 µM (inactive)	> 10 µM (inactive)	> 10 µM (inactive)	> 10 µM (inactive)	> 10 µM (inactive)	> 10 µM (inactive)	> 10 µM (inactive)	> 10 µM (inactive)	> 10 µM (inactive)	> 10 µM (inactive)	> 10 µM (inactive)	> 10 µM (inactive)
Nc1n[n+]([O-])c2ccc(Cl)cc2[n+]1[O-]	25.1 µM (inactive)	13.9 µM (inactive)	21.9 µM (inactive)	12.8 µM (inactive)	18.3 µM (inactive)	26.9 µM (inactive)	23 µM (inactive)	> 10 µM (inactive)	24.2 µM (inactive)	31.7 µM (inactive)	32.1 µM (inactive)	32 µM (inactive)	16.7 µM (inactive)	14.7 µM (inactive)	20.4 µM (inactive)	20.6 µM (inactive)	24.7 µM (inactive)	23.8 µM (inactive)	–
COC(=O)Nc1nc2cc(NC(=O)c3cccs3)ccc2[nH]1	25.9 µM (inactive)	15.1 µM (inactive)	44.9 µM (inactive)	29.6 µM (inactive)	23.4 µM (inactive)	11.2 µM (inactive)	21.9 µM (inactive)	52.2 µM (inactive)	> 100 µM (inactive)	50.9 µM (inactive)	57.1 µM (inactive)	62.1 µM (inactive)	29 µM (inactive)	33.7 µM (inactive)	46.9 µM (inactive)	27.5 µM (inactive)	31.3 µM (inactive)	38.5 µM (inactive)	19.2 µM (inactive)
Cc1ccc(S[C@@](C=O)(NC(=O)OCc2ccccc2)C(F)(F)F)cc1	21.3 µM (inactive)	44.3 µM (inactive)	26.1 µM (inactive)	17 µM (inactive)	26.4 µM (inactive)	65 µM (inactive)	24.7 µM (inactive)	19.3 µM (inactive)	–	20.4 µM (inactive)	26.7 µM (inactive)	19.6 µM (inactive)	45 µM (inactive)	21.5 µM (inactive)	21.2 µM (inactive)	21.8 µM (inactive)	23.8 µM (inactive)	25.3 µM (inactive)	42 µM (inactive)
O=[N+]([O-])C(C=C(n1nnc2ccccc21)n1nnc2ccccc21)=C(n1nnc2ccccc21)n1nnc2ccccc21	> 100 µM (inactive)	58.5 µM (inactive)	> 100 µM (inactive)	> 100 µM (inactive)	> 100 µM (inactive)	> 100 µM (inactive)	> 100 µM (inactive)	> 100 µM (inactive)	> 100 µM (inactive)	> 100 µM (inactive)	> 100 µM (inactive)	> 100 µM (inactive)	> 100 µM (inactive)	26.2 µM (inactive)	> 100 µM (inactive)	> 100 µM (inactive)	> 100 µM (inactive)	–	> 100 µM (inactive)
CO/N=C(\C)c1cccc(Nc2c3ccccc3nc3occc23)c1	10.4 µM (inactive)	17 µM (inactive)	4.82 µM (inactive)	5.24 µM (inactive)	13.4 µM (inactive)	19.3 µM (inactive)	9.06 µM (inactive)	7.55 µM (inactive)	–	14.7 µM (inactive)	16 µM (inactive)	9.79 µM (inactive)	14.4 µM (inactive)	4.63 µM (inactive)	11.7 µM (inactive)	–	7.23 µM (inactive)	5.35 µM (inactive)	4.72 µM (inactive)
O=C1c2c(O)cccc2C(C2OC(CO)C(O)C(O)C2O)c2cc(CO)cc(O)c21 (stereo not drawn)	> 100 µM (inactive)	> 100 µM (inactive)	> 100 µM (inactive)	> 100 µM (inactive)	> 100 µM (inactive)	> 100 µM (inactive)	> 100 µM (inactive)	> 100 µM (inactive)	> 100 µM (inactive)	> 100 µM (inactive)	> 100 µM (inactive)	> 100 µM (inactive)	> 100 µM (inactive)	> 100 µM (inactive)	> 100 µM (inactive)	> 100 µM (inactive)	> 100 µM (inactive)	> 100 µM (inactive)	–
